Results: publication PMC8400920, “Metabolism of Diterpenoids Derived from the Bark of Cinnamomum cassia in Human Liver Microsomes” (Pharmaceutics, 2021)
Where a name gives a salt, the structure may show the parent alone.

Key:
[1] = test system: human liver microsomes (HLMs); assay: Metabolic stability of seven diterpenoids in human liver microsomes; type: in vitro ADME; conditions: 10 µM, 0.5 mg/mL HLMs, NGS, 37 °C
Description: For metabolism profiling, 10 µM of each of the seven compounds isolated from C. cassia bark was added to 0.5 mg/mL of pooled HLMs and 0.1 M potassium phosphate buffer (pH 7.4). The HLMs were then preincubated at 37 °C for 1 min. After adding NGS, the reaction mixture was incubated at 37 °C for 60 min. After the 60 min incubation period, 50 µL of the reaction mixture was transferred to a new tube, and 50 µL of 100% ACN containing 0.1% formic acid and tolbutamide (internal standard) was added to terminate the reaction. The mixture was then vortexed, followed by centrifugation at 15,700× g (13,000 rpm) for 10 min (Eppendorf AG, Hamburg, Germany). Finally, 90 µL of the supernatant was transferred to a vial and injected into a C18 column for LC–MS/MS analysis.
The metabolism screening of the seven compounds was performed using an HPLC system (Thermo Fisher Scientific, Bremen, Germany) equipped with an HPG-3200SD standard binary pump, a WPS-3000 TRS analytical autosampler, and a TCC-3000 SD column compartment. The HPLC system was coupled with an HR-MS (Q-Exactive Focus Quadrupole-Orbitrap MS; Thermo Fisher Scientific, Waltham, MA, USA) at the Mass Spectrometry Convergence Research Center. The full MS resolution and scan ranges were 70,000 and 60–900 m/z, respectively. The MS/MS resolution was 35,000. The mass spectra were obtained in negative ion electrospray mode. A heated electrospray ionization (HESI-II) probe was used as an ion generator, with nitrogen as the sheath gas at 35 aux units and auxiliary gas at 12 aux units. The mass spectrometer was operated in negative ionization mode. The other parameters were as follows: spray voltage, 3.5 kV; capillary temperature, 320 °C; S-lens radio frequency level, 50; and aux gas heater temperature, 400 °C.
The mobile phase consisted of 100% water with 0.1% formic acid (mobile phase A) and 100% ACN with 0.1% formic acid (mobile phase B). For metabolic stability, the gradient conditions were set as follows: 5% of B at 0.5–2.0 min, 5–50% of B at 2.0–4.5 min, 50% of B at 4.5–7.0 min, and 50–5% of B at 7.0–10.0 min at 40 °C with a flow rate of 0.2 mL/min. For metabolite identification, the gradient conditions were as follows: 10% of B at 0–5 min, 10–55% of B at 5–15 min, 55% of B at 15–23 min, and 55–10% of B at 23–30 min with a flow rate of 0.25 mL/min. Chromatographic separation was performed using a Kinetex C18 column (150 × 2.1 mm, 2.6 μm, XB-C18 100 Å, S/No: H19-070128; Phenomenex, Torrance, CA, USA). Data were analyzed using Xcalibur version 4.0 software (Thermo Fisher Scientific, Waltham, MA, USA).
To confirm their metabolic stability, seven diterpenoids (AHC, anhydrocinnzeylanol, cinncassiol A, cinncassiol B, cinnzeylanol, cinnzeylanone, and cinnzeylanine) derived from the bark of C. cassia were incubated with HLMs in the presence of the NGS for 60 min (Figure 1B). The metabolic stability of each compound was determined according to the ratio of the peak area at 60 min to that at 0 min. […] Therefore, we identified the metabolites of AHC produced in HLMs.

CYPs = assay: Metabolism of AHC in HLMs with SKF-525A, a nonselective CYP inhibitor; type: in vitro ADME, human; conditions: 10 µM AHC, 1 mg/mL HLMs, NGS, 60 min
Description: To investigate CYP-mediated metabolism, 10 µM AHC was mixed with 1 mg/mL pooled HLMs and 0.1 M potassium phosphate buffer (pH 7.4). Then, SKF-525A, a general inhibitor of CYPs, was added at concentrations of 0.5, 1, and 5 mM. The reactions were initiated with the addition of NGS at […] for 60 min. After 60 min, the reactions were terminated by adding 400 µL of 100% acetonitrile. The mixtures were then centrifuged at 15,700× g for 10 min. Subsequently, 550 µL of supernatant was dried in a vacuum concentrator. The residue was dissolved in 100 µL of 20% MeOH (0.1% formic acid), and 5 µL of this sample was injected into a C18 column for LC–MS/MS analysis.
To confirm the metabolism of AHC by CYP enzymes, AHC was incubated in HLMs with SKF-525A, i.e., a nonspecific CYP inhibitor (Figure S7). […] Consequently, as the metabolism of AHC was inhibited by SKF-525A treatment, the production of all metabolites was reduced in an SKF-525A concentration-dependent manner.

effect of SKF-525A on the metabolism of AHC in HLMs (CYPs)	SMILES	decrease of stability in HLMs (peak area 60 min vs 0 min) [1]	fraction metabolized in HLMs (metabolized by) ([1]; 60 min) [%]
	CC1=C(C(C)C)C[C@@]2(O)[C@@]3(C)CC(=O)O[C@@]4([C@H](O)[C@@H](C)CC[C@]34O)[C@@]12O [anhydrocinnzeylanol]	approximately 20%	20
inhibited	CCCC(C(=O)OCCN(CC)CC)(c1ccccc1)c1ccccc1 [SKF-525A, proadifen hydrochloride, reference compound]		
	CC1CCC2(O)C3(C)CC4(O)OC2(C1=O)C1(O)C3(O)CC(O)(C(C)C)C41C (stereo not shown) [cinnzeylanone]	approximately 20%	
